This assay deals with Pseudomonas aeruginosa (P. aeruginosa). The experiment in a line: Minimum bactericidal concentration (MBC) test: serial dilutions in thickened Letheen Broth, plating and colony count. Type of assay: cell-based. More on the design: key to MBC observation (contamination grade): −: no bacteria was observed on the plates; +: a trace of contamination was observed (<10 colonies); ++: light contamination was observed (>100 colonies); +++: heavy contamination was observed (continuous smear of growth). Particulars: 24 hours at 37° C. The method, then: The minimum bactericidal concentration (MBC) values reported herein were determined using Pseudomonas aeruginosa (P. aeruginosa), which is a gram-negative pathogen that can cause severe acute and chronic infections. The MBC is the lowest biocide or biocide combination concentration that kills 100% of the tested bacteria. The cultures of P. aeruginosa were grown for 24 hours in Letheen Broth before treatment with each biocide (e.g., copper-containing glass particles or organic co-biocide) or biocide combination (e.g., copper-containing glass particles and an organic co-biocide). A stock copper-containing glass particle dispersion containing 10 wt % copper-containing glass particles and 1.5% hydoxyethylcellulose (HEC) thickener (Natrosol™ Plus 330 PA) was prepared for serial dilution in thickened Letheen Broth (Letheen Broth containing 1.5 wt % HEC thickener) to achieve the desired test concentrations. A stock organic co-biocide or biocide combination dispersion was prepared by combining 5 grams of a 1 wt % dispersion of each organic co-biocide or biocide combination in 1 wt % HEC thickener for serial dilution to achieve the desired test concentrations. 1000 μL of the dispersion of interest was added to a microcentrifuge tube (referred to as “tube 1”). Serial dilution continued with the dilution of 500 μL of the dispersion from tube 1 with 500 μL of thickened Letheen Broth (“tube 2”). Serial dilutions were continued in this manner […] (tube 3 to tube 10). Tube 11 contained 500 μL of thickened Letheen Broth as a “broth blank.” 50 μL of P. aeruginosa was transferred directly from culture into each of tubes 1-11 and the tubes were incubated at 37° C. for 24 hours. At the end of the incubation period, each tube 1-11 was plated and the plates were incubated at 37° C. for 24 hours. At the end of the incubation period, the plates were removed and the colonies on each plate were counted and recorded.
The number of colonies remaining after treatment was determined for serial dilutions of 3 different organic biocides alone and in combination with copper-containing glass particles. Example 1A was treated with serial dilutions of Nuosept® 95 Preservative, which contains a mixture of 5-hydroxymethyl-1-aza-3,7-dioxabicyclo-(3.3.0) octane, 5-hydroxymethoxymethyl-1-aza-3,7-dioxabicyclo-(3.3.0) octane, and 5-hydroxypoly(methyleneoxy)methyl-1-aza-3,7-dioxabicyclo-(3.3.0) octane. Examples 1B and 1C were treated with serial dilutions of a 50:50 mixture and a 25:75 mixture, respectively, of Nuosept® 95 Preservative and copper-containing glass particles. Example 2A was treated with serial dilutions of benzisothiazolinone (BIT). Examples 2B and 2C were treated with serial dilutions of a 50:50 mixture and a 25:75 mixture, respectively, of BIT and copper-containing glass particles. Example 3A was treated with serial dilutions of Bronopol. Examples 3B and 3C were treated with serial dilutions of a 50:50 mixture and a 25:75 mixture, respectively, of Bronopol and copper-containing glass particles. Examples 4A and 4B were duplicate samples treated with serial dilutions of the copper-containing glass particles.
For each Example 1A-C, 2A-C, 3A-C, and 4A-B, 1000 μL of the dispersion of interest, the stock organic co-biocide dispersion, the stock copper-containing glass particle dispersion, or the indicated ratio of each dispersion, was added to a microcentrifuge tube (referred to as “tube 1”). 500 μL of the dispersion from tube 1 was diluted with 500 μL of thickened Letheen Broth (“tube 2”). Serial dilutions with thickened Letheen Broth were prepared up to tube 10. Tube 11 contained 500 μL of thickened Letheen Broth as a “broth blank.” 50 μL of P. aeruginosa was transferred directly from culture into each of tubes 1-11 and the tubes were incubated at 37° C. for 24 hours. At the end of the incubation period, each tube 1-11 was plated and the plates were incubated 37° C. for 24 hours. […]

[1] abbreviates: Biocide Conc. 3.91 ppm (tube 10).
The mark [2] stands for this setting: Biocide Conc. 7.81 ppm (tube 9).
[3] abbreviates: Biocide Conc. 15.63 ppm (tube 8).
[4] abbreviates: Biocide Conc. 31.25 ppm (tube 7).
The mark [5] stands for this setting: Biocide Conc. 62.5 ppm (tube 6).
Where [6] appears, read: Biocide Conc. 1000 ppm (tube 2).
[7] abbreviates: Biocide Conc. 2000 ppm (tube 1).

`O=[N+]([O-])C(Br)(CO)CO` [Ex. 3A, Bronopol]: the “MBC observation (contamination grade)” value is reported as “+++” under setting [1]; “+++” under setting [2]; “−” under setting [3]; “−” under setting [4]; “−” under setting [5]; “−” (Biocide Conc. 125 ppm (tube 5)). Further, the “MBC observation (contamination grade)” value (Biocide Conc. 250 ppm (tube 4)) is “−”, the “MBC observation (contamination grade)” value (Biocide Conc. 500 ppm (tube 3)) is given as “−”, the “MBC observation (contamination grade)” value under setting [6] was “−” and the “MBC observation (contamination grade)” value under setting [7] was “−”. The colony count entry reads like this: under setting [1], “(>1000) colonies”; under setting [2], “(>1000) colonies”; under setting [3], 0 colonies; under setting [4], 0 colonies; under setting [5], 0 colonies; (Biocide Conc. 125 ppm (tube 5)) 0 colonies. For the same molecule, the colony count is recorded as 0 colonies (Biocide Conc. 250 ppm (tube 4)), 0 colonies (Biocide Conc. 500 ppm (tube 3)), 0 colonies under setting [6] and 0 colonies under setting [7].
As for `O=c1[nH]sc2ccccc12` [Ex. 2A, benzisothiazolinone], the “MBC observation (contamination grade)” value is recorded as “+++” under setting [1]; “+++” under setting [2]; “+++” under setting [3]; “++ (light contamination was observed (>100 colonies))” under setting [4]; “+ (a trace of contamination was observed (<10 colonies))” under setting [5]; “−” (Biocide Conc. 125 ppm (tube 5)). The “MBC observation (contamination grade)” value is on record as “−” (Biocide Conc. 250 ppm (tube 4)), “−” (Biocide Conc. 500 ppm (tube 3)), “−” under setting [6] and “−” under setting [7]. In addition, the colony count result by setting is: under setting [1], “(>1000) colonies”; under setting [2], “(>1000) colonies”; under setting [3], “(>1000) colonies”; under setting [4], 513 colonies; under setting [5], 35 colonies; (Biocide Conc. 125 ppm (tube 5)) 0 colonies. Further, the colony count (Biocide Conc. 250 ppm (tube 4)) is recorded as 0 colonies, the colony count (Biocide Conc. 500 ppm (tube 3)) is recorded as 0 colonies, the colony count under setting [6] was determined as 0 colonies and the colony count under setting [7] is 0 colonies.

The record behind these values is patent US20240148002A1, “BIOCIDAL COMPOSITIONS CONTAINING COPPER AND A CO-BIOCIDE” (CORNING INCORPORATED, priority 2021, published 2024).
